# Source: patent publication US20260091027A1, “STILBENE DERIVATIVES AS WELL AS PREPARATION METHOD THEREFOR AND USE THEREOF” (THEDERMA SHANGHAI CO., LTD., priority 2022, published 2026)
# pEC50: −log10 of the molar value.
# What was measured:
# [1] = Illumination stability experiment (HPLC content); type: physicochemical; details: visible light 5000 ± 500 lx, ultraviolet light 250 μW/cm^2
# Procedure: Test Example 2. Illumination Stability Experiment
# • Stability chamber, model: ICH-110L, Memmert, USA; • High performance liquid chromatograph (HPLC), model: 1260, Agilent.
# • Detection wavelength: 220 nM, 254 nM • Chromatographic column: Agilent ZORBAX SB-C8 4.6×250 mm, 5 μm • Mobile phase A: water • Mobile phase B: acetonitrile • Flow rate: 1.0 mL/min • Column temperature: 35° C. • Injection volume: 10 μL
# • 1. A test compound was weighed out and placed into the stability chamber; • 2. a light source was turned on, with visible light of 5000±500 lx and ultraviolet light of 250 μW/cm^2; • 3. sampling was performed at 0 h, 8 h, 24 h, and 72 h, and the sample was dissolved in an aqueous acetonitrile solution with a volume fraction of 50%; • 4. HPLC was used for detection, and the content was determined by using the area normalization method.
# AHR protein = target: T1, AHR protein (Homo sapiens, UniProt P35869); experiment: Luciferase reporter gene assay (AHR agonistic activity); type: cell-based; details: HepG2-Lucia AHR cells, 24 h incubation; read-out: Luciferase-labeled human hepatoma cells (HepG2-Lucia) AHR agonist EC50
# T1 construct: Human hepatoma cells HepG2-Lucia expressing AHR and luciferase; host or cells: HepG2-Lucia AHR (human hepatoma)
# T1 sequence (P35869 11-848): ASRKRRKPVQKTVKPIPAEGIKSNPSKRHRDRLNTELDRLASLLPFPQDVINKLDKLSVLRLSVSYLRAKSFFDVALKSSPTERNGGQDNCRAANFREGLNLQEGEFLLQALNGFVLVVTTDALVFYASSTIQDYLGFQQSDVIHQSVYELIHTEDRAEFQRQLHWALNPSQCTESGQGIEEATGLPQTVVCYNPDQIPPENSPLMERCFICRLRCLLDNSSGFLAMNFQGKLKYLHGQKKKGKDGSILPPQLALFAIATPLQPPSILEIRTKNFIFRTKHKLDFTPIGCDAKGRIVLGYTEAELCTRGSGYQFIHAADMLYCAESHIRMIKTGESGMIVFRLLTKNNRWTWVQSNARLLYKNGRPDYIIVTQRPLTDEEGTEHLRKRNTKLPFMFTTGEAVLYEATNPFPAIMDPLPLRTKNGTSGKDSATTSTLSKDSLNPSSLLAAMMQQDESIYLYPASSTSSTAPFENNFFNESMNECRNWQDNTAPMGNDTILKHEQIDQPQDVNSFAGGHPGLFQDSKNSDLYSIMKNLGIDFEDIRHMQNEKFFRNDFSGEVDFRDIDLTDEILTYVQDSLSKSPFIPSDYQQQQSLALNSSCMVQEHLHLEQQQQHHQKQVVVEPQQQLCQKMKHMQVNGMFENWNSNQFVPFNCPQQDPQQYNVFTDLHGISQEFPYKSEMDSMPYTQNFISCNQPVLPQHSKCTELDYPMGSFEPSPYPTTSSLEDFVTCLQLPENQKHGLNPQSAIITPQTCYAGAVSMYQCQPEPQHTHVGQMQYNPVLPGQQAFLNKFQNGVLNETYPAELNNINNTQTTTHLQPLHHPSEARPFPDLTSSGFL
# Procedure: Luciferase Reporter Gene Assay
# In this test example, a luciferase reporter gene assay was performed to assay the agonistic activity effect of the compounds of the present disclosure on AHR protein.
# • Human hepatoma cells HepG2-Lucia expressing AHR and luciferase were purchased from InvivoGen with the catalog number of hpgl-ahr;
# • 1. HepG2-Lucia AHR cells were cultured in an EMEM medium containing 10% inactivated fetal bovine serum, 1×NEAA, penicillin-streptomycin, and 100 μg/mL Zeocin (bleomycin). The culture temperature was 37° C. and the concentration of carbon dioxide was 5%. • 2. After the cells were grown to about 80% confluency, the cells were digested, centrifuged, resuspended, and counted. The cells were seeded into a 384-well plate at 40 μL/well. • 3. Different concentrations of the test compounds were added by using ECHO at 40 nL/well. • 4. The 384-well plate to which the compounds were added was incubated in the incubator for 24 h. • 5. The supernatant was collected, a QUANTI-Luc Gold detection reagent was added, and the luminescence signal values were read by using the multifunctional microplate reader.
molecule,measurement,setting,value
"CC(C)c1c(O)cc(/C=C/c2ccccc2)cc1O [Benvitimod, reference compound]","Liquid chromatography content (220 nM, %)","[1]; batch 1, 0 h",99.87%
same,"Liquid chromatography content (220 nM, %)","[1]; batch 1, 8 h",85.14%
same,"Liquid chromatography content (220 nM, %)","[1]; batch 1, 24 h",74.20%
same,"Liquid chromatography content (220 nM, %)","[1]; batch 1, 72 h",69.53%
"CC(C)c1c(O)cc(/C=C/c2cccc(F)n2)cc1O [Comparative Example 1, reference compound]","Liquid chromatography content (220 nM, %)","[1]; batch 2, 0 h",96.99%
same,"Liquid chromatography content (220 nM, %)","[1]; batch 2, 8 h",85.98%
same,"Liquid chromatography content (220 nM, %)","[1]; batch 2, 24 h",82.13%
same,"Liquid chromatography content (220 nM, %)","[1]; batch 2, 72 h",72.30%
"CC(C)c1c(O)cc(/C=C/c2ccccc2)c(Cl)c1O [Compound 1, (E)-4-Chloro-2-isopropyl-5-styrylbenzene-1,3-diol]",pEC50,AHR protein,6.62
"Cc1c(/C=C/c2ccccc2)cc(O)c(C(C)C)c1O [Compound 2, (E)-2-Isopropyl-4-methyl-5-styrylbenzene-1,3-diol]",pEC50,AHR protein,6.75
"CC(C)c1c(O)cc(/C=C/c2ccccc2)c(F)c1O [Compound 3, (E)-4-Fluoro-2-isopropyl-5-styrylbenzene-1,3-diol]",pEC50,AHR protein,7.24
same,"Liquid chromatography content (220 nM, %)","[1]; batch 1, 0 h",97.25%
same,"Liquid chromatography content (220 nM, %)","[1]; batch 1, 8 h",97.33%
same,"Liquid chromatography content (220 nM, %)","[1]; batch 1, 24 h",96.06%
same,"Liquid chromatography content (220 nM, %)","[1]; batch 1, 72 h",97.71%
"CC(C)c1c(O)cc(/C=C/c2ccccc2)c(Br)c1O [Compound 4, (E)-4-Bromo-2-isopropyl-5-styrylbenzene-1,3-diol]",pEC50,AHR protein,6.66
"CC(C)c1c(O)cc(/C=C/c2ccc(F)cc2)c(F)c1O [Compound 5, (E)-4-Fluoro-5-(4-fluorostyryl)-2-isopropylbenzene-1,3-diol]",pEC50,AHR protein,8.22
same,"Liquid chromatography content (220 nM, %)","[1]; batch 2, 0 h",99.30%
same,"Liquid chromatography content (220 nM, %)","[1]; batch 2, 8 h",98.80%
same,"Liquid chromatography content (220 nM, %)","[1]; batch 2, 24 h",99.22%
same,"Liquid chromatography content (220 nM, %)","[1]; batch 2, 72 h",99.06%
"CC(C)c1c(O)cc(/C=C/c2ccccc2F)c(F)c1O [Compound 6, (E)-4-Fluoro-5-(2-fluorostyryl)-2-isopropylbenzene-1,3-diol]",pEC50,AHR protein,8.00
same,"Liquid chromatography content (220 nM, %)","[1]; batch 2, 0 h",98.31%
same,"Liquid chromatography content (220 nM, %)","[1]; batch 2, 8 h",98.37%
same,"Liquid chromatography content (220 nM, %)","[1]; batch 2, 24 h",98.27%
same,"Liquid chromatography content (220 nM, %)","[1]; batch 2, 72 h",98.68%
"CC(C)c1c(O)cc(/C=C/c2ncccc2F)c(F)c1O [Compound 7, (E)-4-Fluoro-5-[2-(3-fluoropyridin-2-yl)vinyl]-2-isopropylbenzene-1,3-diol]",pEC50,AHR protein,7.52
same,"Liquid chromatography content (220 nM, %)","[1]; batch 2, 0 h",98.70%
same,"Liquid chromatography content (220 nM, %)","[1]; batch 2, 8 h",95.84%
same,"Liquid chromatography content (220 nM, %)","[1]; batch 2, 24 h",91.56%
same,"Liquid chromatography content (220 nM, %)","[1]; batch 2, 72 h",89.57%
"CC(C)c1c(O)cc(/C=C/c2ncccc2Cl)c(F)c1O [Compound 8, (E)-5-[2-(3-Chloropyridin-2-yl)vinyl]-4-fluoro-2-isopropylbenzene-1,3-diol]",pEC50,AHR protein,7.89
"CC(C)c1c(O)cc(/C=C/c2ccc(F)cn2)c(F)c1O [Compound 9, (E)-4-Fluoro-5-[2-(5-fluoropyridin-2-yl)vinyl]-2-isopropylbenzene-1,3-diol]",pEC50,AHR protein,7.70
same,"Liquid chromatography content (220 nM, %)","[1]; batch 2, 0 h",99.46%
same,"Liquid chromatography content (220 nM, %)","[1]; batch 2, 8 h",98.65%
same,"Liquid chromatography content (220 nM, %)","[1]; batch 2, 24 h",97.46%
same,"Liquid chromatography content (220 nM, %)","[1]; batch 2, 72 h",92.06%
"CC(C)c1c(O)cc(/C=C/c2cccc(F)n2)c(F)c1O [Compound 14, (E)-4-Fluoro-5-[2-(6-fluoropyridin-2-yl)vinyl]-2-isopropylbenzene-1,3-diol]",pEC50,AHR protein,7.57
same,"Liquid chromatography content (220 nM, %)","[1]; batch 2, 0 h",88.32%
same,"Liquid chromatography content (220 nM, %)","[1]; batch 2, 8 h",87.83%
same,"Liquid chromatography content (220 nM, %)","[1]; batch 2, 24 h",88.31%
same,"Liquid chromatography content (220 nM, %)","[1]; batch 2, 72 h",84.37%
"CC(C)c1c(O)cc(/C=C/c2ccncc2)c(F)c1O [Compound 18, (E)-4-Fluoro-2-isopropyl-5-[2-(pyridin-4-yl)vinyl]benzene-1,3-diol]",pEC50,AHR protein,7.18
"(E)-4-Fluoro-2-isopropyl-5-[2-(pyridin-2-yl)vinyl]benzene-1,3-diol [Compound 16]","Liquid chromatography content (220 nM, %)","[1]; batch 2, 0 h",97.58%
same,"Liquid chromatography content (220 nM, %)","[1]; batch 2, 8 h",97.52%
same,"Liquid chromatography content (220 nM, %)","[1]; batch 2, 24 h",96.88%
same,"Liquid chromatography content (220 nM, %)","[1]; batch 2, 72 h",96.81%
